Where a SMILES comes first, the peptide text is derived from it. [ ]: non-standard residue; d: D form. Nle = CCCC[C@H](N)C(=O)O
Assays:
[1] = tested on: HDAC2; experiment: Serine phosphorylation of immunoprecipitated HDAC2 in H292 cells; assay type: cell-based, human
Protocol: FIG. 6: CSE induced CK2-dependent HDAC2 phosphorylation in bronchial epithelial and small airway epithelial cells. [A (i)] H292 cells were treated with CSE (2.5%) for 0.5, 1, 2 and 4 h. Immunoprecipitated HDAC2 was analyzed for phosphorylation of serine residues using specific phospho-serine antibodies by SDS polyacrylamide gel. CSE induced significant cyclical phosphorylation of HDAC2 on serine residues at 0.5, 1 and 4 h. [A (ii)] Relative density of phosphor-serine expression normalized to immunoprecipitated HDAC2. [B (i)] […] Immunoprecipitated HDAC2 from whole cell lysates was probed for phosphorylation of serine residues, CSE induced a dose-dependent increase in HDAC2 serine phosphorylation. [B (ii)] Relative density of phospho-serine expression normalized to immunoprecipitated HDAC2. (C) H292 cells were treated with or without specific CK2 inhibitor, TBB. for 1 h, cells were washed with sterile 1×PBS and then treated with freshly prepared CSE (2.5%) for 0.5 h, Immunoprecipitated HDAC2 was assayed for phosphorylation on serine residues. […] (D) Relative density of phosphor-serine expression normalized to immunoprecipitated HDAC2.
FIG. 14: Loss of Serine Sites S^394, S^422, S^424 Abrogates Cigarette Smoke Extract (CSE)-Induced Phosphatase-Independent HDAC2 Phosphorylation. A) Bronchial epithelial H292 cells were transfected with plasmid vector or flag-tagged WT HDAC2 (1-488) for 24 h using lipofectamine 2000 and then treated with or without 2.5% CSE for 0.5 h or B) 50 μM. acrolein for 1 h. Flag-tagged proteins were immunoprecipitated overnight and serine phosphorylation detected by western blots using phospho-serine antibodies. C) Flag-tagged WT HDAC2 was immunoprecipitated from whole cell lysates of H292 cells treated with 2.5% CSE for 0.5 h. Immunoprecipates were then washed and treated with 400 U of λ-phosphatase or buffer alone for 1 h at 30° C. Phosphorylation of serine sites were detected by western blots using anti-serine antibodies. D) H292 cells were transfected with plasmid vector, flag-tagged WT HDAC2 (1-488) or S394A, S394/411/422/424A and 1-400 aa HDAC2 mutants for 24 h with lipofectamine 2000. Cells were then treated with 2.5% CSE for 0.5 h. Serine phosphorylation of immunoprecipitated flag proteins was determined by western blot. E) Phosphatase activity was determined using non-radioactive assay system (Promega). H292 cells were treated with or without 2.5% CSE for 0.5, 2 and 6 h with serine/threonine […] (okadaic acid) used as a positive control. 5 μg protein was incubated with PP2A specific-peptide substrate RRA(pT)VA and reaction buffer for 15 minutes in a 96-well plate. Molybdate dye/additive mixture was added to stop the reaction and color allowed to develop for 15 minutes. Optical density of samples was determined using a microplate reader with a 630 nm filter.
FIG. 18: Protein Kinase CK2 Inhibitors Blocks CSE-Induced HDAC2 Phosphorylation. A) Bronchial epithelial H292 cells transfected with a flag-tagged WT HDAC2 plasmid were treated with 2.5% CSE for 0.5 h. […] B) Relative density of phospho-serine expression normalized to immunoprecipitated HDAC2. Data expressed as mean±SEM (n=3). *** P<0.001, ### P<0.001 significant compared to control treatments.
(§1) Cell lysate controls were used.

[2] = tested on: A549 epithelial cells; experiment: Histone acetylation:deacetylation in A549 epithelial cells; assay type: cell-based
Text: The effect of cigarette smoke extract/condensate (CSC/CSE) and oxidative stress on histone acetylation:deacetylation and pro-inflammatory gene transcription in A549 epithelial cells has been investigated. […] CSE-mediated decrease in HDAC2 level was associated with posttranslational modifications by 4-hydroxy-2-nonenal and nitric oxide radicals generated by cigarette smoke exposure.

[3] = tested on: HDAC2; experiment: Ubiquitination of immunoprecipitated HDAC2 in MonoMac6 cells; assay type: cell-based, human
Protocol: FIG. 4: CSE-mediated degradation of HDAC2 is ubiquitin-proteasome dependent in MonoMac6 cells. […] Immunoprecipitated HDAC2 was assayed for bound ubiquitin using specific ubiquitin anti-sera. […] (D) The relative density of ubiquitin expression in MonoMac6 cells after proteasome inhibition of CSE-induced HDAC2 degradation normalized to immunoprecipitated HDAC2.
as §1
(§2) To further confirm this hypothesis, it was determined if exposure to okadaic acid would induce ubiquitination and degradation of HDAC2. […] Immunoprecipitated HDAC2 was then assayed for the presence of ubiquitinated residues using specific ubiquitin anti-sera by western blot. […] To further confirm the hypothesis, MonoMac6 cells were treated with okadaic acid (1 μM) for 0.5 h, cells were fixed in 4% paraformaldehyde and immunostained with anti-HDAC2 antibodies to determine HDAC2 localization.

[4] = tested on: HDAC2; experiment: HDAC2 levels by western blot in MonoMac6 cells; settings: then CSE 2.5% 6 h
Protocol: The human monocyte-macrophage cell line (MonoMac6) was established from the peripheral blood of a subject with monoblastic leukemia (21). […]
MonoMac6 cells were washed with Ca^2+/Mg^2+ free PBS and seeded at a density of 5.0×10^6 cells in 100 mm culture plates in a total volume of 7 ml RPMI-1640 containing 0.5% FBS. […] Cells were treated with CSE (2.5%), washed in ice-cold sterile Ca^2+/Mg^2+ free PBS and lysed in RIPA buffer (50 mM Tris HCl pH 7.4, 150 mM NaCl, 0.25 mM EDTA, 5 mM NaF, 0.1% sodium deoxycholate, 1% Triton X-100); cell extracts and cell culture media were stored at −80° C. until analyzed.
Cells were lysed in 100 μl RIPA buffer supplemented with protease inhibitor cocktail (leupeptin, aprotinin, pepstatin and PMSF) and stored at −80° C. […] After extensive washing, primary antibodies were detected with secondary antibodies linked to horseradish peroxidase (Dako, Carpinteria, Calif.) and bound complex detected with enhanced chemiluminescence (PerkinElmer, Waltham, Mass.).

[5] = tested on: LPS-induced lung inflammation; experiment: LPS-induced lung inflammation in WT mice; assay type: in vivo, mouse
Protocol: LPS exposure studies in mice were performed as described previously. Briefly, age-matched WT, Nrf2−/− and HDAC2−/− were exposed to aerosolized Escherichia coli LPS (1 mg/ml) for 8 minutes. Aerosolized saline-exposed mice were used as controls, and animals were sacrificed at 24 h post last exposure.
Corticosteroid treatment.
Bronchoalveolar lavage. Mice were anaesthetized by pentobarbital (Abbott Laboratories, Abbott Park, Ill.) intraperitoneal injection (100 mg/kg body weight) before sacrifice. Lungs were then removed and lavaged three times with 0.6 ml of 0.9% sodium chloride with cannula inserted into the trachea. Total lavage fluid for each mouse was combined and then centrifuged. Supernatants were frozen at −80° C. until required for further analysis and cell pellets resuspended in 1 ml of saline, and total number of cells determined using a haemocytometer. Differential counts (minimum 500 per slide) were determined using Diff-Quik (Dade Behring, Newark, Del.)-stained cytospin slides.
Cytokine Analysis. Monocyte chemotactic protein 1 (MCP-1) levels were measured from mouse lung soluble protein by enzyme-linked immunosorbent assay (ELISA) with the duo-antibody kit (R & D Systems). Results were normalized to protein concentration per sample.

[6] = tested on: LPS-induced lung inflammation; experiment: LPS-induced lung inflammation in HDAC2−/− mice; assay type: in vivo, mouse
Text: Mice. The Nrf2 knockout (KO) mouse strain (Nrf2−/− on C57BL/6J background) used in this study is described earlier and was generously supplied by Prof. Masayuki Yamamoto, University of Tsukuba, Japan via the RIKEN BioResource Center, Tsukuba, Japan. HDAC2 mutant (HDAC2−/− on C57BL/6J background) mice were kindly provided by Dr. J. A. Epstein (University of Pennsylvania School of Medicine, Philadelphia, Pa.). […] Wild-type (WT) C57BL/6J mice were purchased from Jackson laboratories (Bar Harbor, Me.). All animal protocols for this study were approved by the University Committee on Animal Research of the University of Rochester.
LPS exposure studies in mice were performed as described previously. Briefly, age-matched WT, Nrf2−/− and HDAC2−/− were exposed to aerosolized Escherichia coli LPS (1 mg/ml) for 8 minutes. […]
Bronchoalveolar lavage. […] Supernatants were frozen at −80° C. until required for further analysis and cell pellets resuspended in 1 ml of saline, and total number of cells determined using a haemocytometer. Differential counts (minimum 500 per slide) were determined using Diff-Quik (Dade Behring, Newark, Del.)-stained cytospin slides.
Cytokine Analysis. Monocyte chemotactic protein 1 (MCP-1) levels were measured from mouse lung soluble protein by enzyme-linked immunosorbent assay (ELISA) with the duo-antibody kit (R & D Systems). […]

[7] = tested on: HDAC2; experiment: HDAC2 immunostaining (localization) in MonoMac6 cells; assay type: cell-based, human; settings: okadaic acid 1 μM, 0.5 h
Protocol: (B) Relative density of HDAC2 levels in human macrophage cells (MonoMac6 cells) at various time points of exposure to CSE.
To determine if CSE induced significant HDAC2 nucleo-cyloplasmic shuttling, MonoMac6 cells were treated with CSE (2.5%) for 4 and 6 h, cells were fixed in 4% paraformaldehyde and immunostained with anti-HDAC2 antibodies to determine HDAC2 localization. […] To determine whether shuttling occurred at earlier time points subsequent to degradation of HDAC2, MonoMac6 cells were exposed to CSE (2.5%) for 0.5 h and 1 h (data not shown).
as §2

[8] = tested on: MonoMac6 cells; assay type: cell-based, human
Protocol: In this study, it was determined the time-dependent effect of CSE on class I HDAC levels MonoMac6 cells were exposed to CSE (2.5%) for 0.5, 1, 2, 4 and 6 h. […] To determine whether class 1 HDAC degradation was due to decreased CSE-induced cell viability, the levels of lactate dehydrogenase (LDH) secreted into conditioned cell media was measured immediately after harvest.

[9] = tested on: CK2α; experiment: CK2α phosphorylation in H292 cells; assay type: cell-based, human; settings: okadaic acid 100 nM and 1 μM, 0.5 and 1 h
Protocol: FIG. 15: CK2α Is Phosphorylated In Response to CSE. […] 80 μg whole cell lysates were then treated with 400 U of λ-phosphatase or buffer alone for 1 h at 30° C. The reaction was stopped by adding equal volume of 2× sample buffer and relative CK2α expression determined by western blotting. D) H292 cells were treated with 100 nM and 1 μM okadaic acid for 0.5 and 1 h. Relative CK2α expression was determined by western blotting using 20 μg whole cell lysates.

[10] = tested on: HDAC2; experiment: Phosphorylation of immunoprecipitated HDAC2 in MonoMac6 cells; settings: okadaic acid 1 μM, 0.5 and 1 h
Protocol: MonoMac6 cells were washed with Ca^2+/Mg^2+ free PBS and seeded at a density of 5.0×10^6 cells in 100 mm culture plates in a total volume of 7 ml RPMI-1640 containing 0.5% FBS. Cells were treated with CSE (2.5%) or Okadaic acid (40 nM and 1 μM) (Alexis Biochemicals, San Diego, Calif.). For treatments with protein casein kinase CK2 inhibitor, 4,5,6,7-tetrabromobenzotriazole (TBB), cells were pretreated with 20 μM TBB (Sigma, St. Louis, Mo.) for 1 or 2 h, cells were then washed with sterile PBS before treatment with CSE. […] Cells were treated with CSE (2.5%), washed in ice-cold sterile Ca^2+/Mg^2+ free PBS and lysed in RIPA buffer (50 mM Tris HCl pH 7.4, 150 mM NaCl, 0.25 mM EDTA, 5 mM NaF, 0.1% sodium deoxycholate, 1% Triton X-100); cell extracts and cell culture media were stored at −80° C. until analyzed.
Cell lysate (200 μg protein) was incubated for overnight with anti-HDAC2 (2 μg) at 4° C., then immunoprecipitated with Protein G-agarose beads for 1 h with constant agitation. Beads were washed at least four times with RIPA buffer, boiled for 10 minutes in 35 μl 2× sample buffer and resolved on a 7.5% SDS-polyacrylamide gel. Cell lysate controls were used. Blots were probed with p-serine (1:1000) and p-threonine (1:1000) (Cell Signaling, Boston, Mass.) monoclonal antibodies for studies on the post-translational modification of HDAC2.

[11] = tested on: HDAC2; experiment: Co-immunoprecipitation of flag-tagged HDAC2 with binding partners in H292 cells; assay type: cell-based, human; settings: H292, flag-tagged WT HDAC2; TBB 40 μM 2 h and 90 μM 0.5 h, then CSE 2.5% 0.5 h
Protocol: FIG. 16: HDAC2 serine phosphorylation is associated with increased interaction with catalytic subunits of protein kinase CK2 in response to CSE. A) Bronchial epithelial H292 cells transfected with either a control vector (control V) or flag-tagged WT HDAC2 were treated with 2.5% CSE for 0.5 h. […] C) Bronchial epithelial H292 cells transfected with flag-tagged WT HDAC2 were treated with either 2.5% CSE for 0.5 h, 25 or 50 μM Acrolein for 1 h and 200 μM H202 for 0.5 and 2 h respectively.
A) H292 cells cultured on 8-well chamber slides were treated with 2.5% CSE for 0.5 h or 50 μM Acrolein for 1 h, washed and fixed with 4% PFA. Slides were incubated with HDAC2 and α-tubulin antibodies overnight at […]. Slides were mounted with antifade mounting solution and images analysed by an Olympus inverted microscope. B) H292 cells were transfected with plasmid vector (Ctrl V) or flag-tagged WT HDAC2 (1-488) for 24 h with lipofectamine 2000. Cells were treated with 2.5% CSE for 0.5 h and flag proteins immunoprecipitated using M2 anti-flag antibodies overnight at 4° C. HDAC1 and C) p53 interaction were determined by western blot. D) H292 cells were transfected with plasmid vector (Ctrl V), flag-tagged WT HDAC2 (1-488) or S^394/^411/^422/^424A and 1-400 amino acid HDAC2 mutants for 24 h with lipofectamine 2000. Cells were then exposed to 2.5% CSE for 0.5 h. Levels of HDAC2 interaction with HDAC1 were determined by western blotting using specific antibodies. E) H292 cells were transfected with flag-tagged WT HDAC2 (1-488) for 24 h with lipofectamine 2000. […] Levels of phospho-serine and HDAC2 interaction with SAP30, RbAp46/48, MBD3 and p65 were determined by western blotting using specific antibodies respectively. […] Levels of HDAC1 and p65 binding to immunoprecipitated flag-tagged HDAC2 was determined by western blotting. […] Deacetylase activity of immunoprecipitated HDAC2 was determined using a specific HDAC2 deacetylase activity kit. Data expressed as mean±SEM (n=3). *** P<0.001 significant compared to control treatments.

OO [H2O2, hydrogen peroxide]
HDAC2 phosphorylation ([1]; H292, flag-tagged WT HDAC2, H2O2 200 μM, 0.5 and 2 h): inability
histone deacetylase (HDAC) activity and HDAC2 protein levels ([2]; H2O2): inhibited
histone acetylation (with histone acetyltransferase activity) ([2]; hydrogen peroxide 100 μM): caused an increase in histone acetylation

CCCC[C@@H](C=O)NC(=O)[C@H](CC(C)C)NC(=O)[C@H](CC(C)C)NC(C)=O [ALLN, N-Acetyl-Leu-Leu-Nle-CHO] (Ac-Leu-Leu-[Nle]-aldehyde)
CSE-induced HDAC2 ubiquitination ([3]; ALLN 1 μM pre-treatment, CSE 2.5% 6 h): further enhanced
CSE-induced HDAC2 degradation ([4]; ALLN 1 μM and 5 μM pretreated 2 h): dose-dependently inhibited HDAC2 degradation

CCCC1O[C@@H]2C[C@H]3[C@@H]4CCC5=CC(=O)C=C[C@]5(C)[C@H]4[C@@H](O)C[C@]3(C)[C@]2(C(=O)CO)O1 (stereo partly drawn) [budesonide]
attenuation of lung neutrophil influx following LPS exposure ([5]; budesonide 3 mg/kg pretreatment): ~50%
efficacy in decreasing MCP-1 release ([5]; budesonide, LPS exposure): 49.4%
neutrophil counts in BALF ([6]; budesonide 3 mg/kg pretreatment, LPS): no effect
efficacy in decreasing MCP-1 release ([6]; budesonide, LPS exposure): 26.4%

C=C1[C@@H](O)[C@@H]2O[C@]3(CC[C@H](/C=C/[C@@H](C)[C@@H]4CC(C)=C[C@@]5(O[C@H](C[C@@](C)(O)C(=O)O)CC[C@H]5O)O4)O3)CC[C@H]2O[C@@H]1[C@@H](O)C[C@H](C)[C@H]1O[C@@]2(CCCCO2)CC[C@H]1C [okadaic acid]
ubiquitination of HDAC2 ([3]; okadaic acid 40 nM, 24 h): significantly induced the ubiquitination of HDAC2
nuclear HDAC2 (immunostaining) [7]: significantly induced the loss of nuclear HDAC2
nucleo-cytoplasmic shuttling of HDAC2 [7]: no nucleo-cytoplasmic shuttling of HDAC2 was observed
toxicity to cells (trypan blue viability, morphology) ([8]; okadaic acid 40 nM, 24 h): not toxic to the cells
cell death ([8]; okadaic acid 1 μM, beyond 1 h): induced cell death
CK2α phosphorylation [9]: induced CK2α phosphorylation
phosphorylation of HDAC2 on serine residues [10]: significantly induced the phosphorylation of HDAC2 on serine residues

Brc1c(Br)c(Br)c2[nH]nnc2c1Br [TBB]
CSE-induced HDAC2 phosphorylation ([1]; H292, flag-tagged WT HDAC2, TBB 50 μM pre-treated 2 h, then CSE 2.5% 0.5 h): completely inhibiting CSE-induced HDAC2 phosphorylation
CSE-induced HDAC2 phosphorylation ([1]; H292, TBB 20 μM pretreated 1 h, then CSE 0.5 h): completely reversed CSE-induced HDAC2 phosphorylation
CSE-induced HDAC2 phosphorylation ([1]; H292, TBB 25 μM pre-treated, then CSE): inhibit HDAC2 phosphorylation but not as efficiently
HDAC2 interaction with HDAC1 and p65 [11]: blocked HDAC2 interaction with both HDAC1 and p65
CSE-induced HDAC2 degradation ([4]; TBB 20 μM pre-treated 2 h): significantly attenuated HDAC2 degradation
